pKd: −log10 of the molar value. Values joined by “and” are separate entries in the source; they are usually repeats but may differ in a detail not shown here. Equal entries are not always repeated. Where two headings read alike, the source gives them in different places.
Tests used:
human plasma = assay: DSC thermograms of plasma with ligand; assay type: binding; conditions: plasma
HSA [1] = biological target: T1, HSA (Homo sapiens, UniProt P02768); assay: Drug screening: HSA binding constants from DSC thermograms
T1 sequence (P02768 25-609): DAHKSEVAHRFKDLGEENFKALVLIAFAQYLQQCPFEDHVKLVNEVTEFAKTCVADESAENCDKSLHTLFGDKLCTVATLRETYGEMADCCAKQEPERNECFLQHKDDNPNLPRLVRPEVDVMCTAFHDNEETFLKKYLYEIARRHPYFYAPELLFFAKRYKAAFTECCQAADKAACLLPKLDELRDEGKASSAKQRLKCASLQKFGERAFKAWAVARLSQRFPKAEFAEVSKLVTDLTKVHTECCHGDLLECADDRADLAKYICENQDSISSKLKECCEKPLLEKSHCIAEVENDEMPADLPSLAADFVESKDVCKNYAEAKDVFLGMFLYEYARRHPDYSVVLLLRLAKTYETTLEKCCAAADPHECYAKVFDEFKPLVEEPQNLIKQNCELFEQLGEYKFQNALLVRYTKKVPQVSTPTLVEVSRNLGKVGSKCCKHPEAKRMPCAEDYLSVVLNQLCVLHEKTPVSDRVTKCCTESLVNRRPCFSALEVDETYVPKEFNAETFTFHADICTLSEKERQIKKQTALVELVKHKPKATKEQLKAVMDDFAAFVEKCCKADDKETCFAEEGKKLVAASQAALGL
Description: (§1) Ligand solubilization: Stock solutions of aqueous insoluble ligands in organic solvents were pipetted into microcentrifuge tubes to yield a desired amount of drug for a 1 mL solution. The microcentrifuge tubes were placed into a vacuum concentrator (Savant SpeedVac Model SC100), and the organic solvents were evaporated, resulting in solid drug in the tube. To each tube, HSA is added at a predetermined concentration with standard buffer to provide a 1 mL working solution.
(§2) In total binding of 28 drug compounds to HSA was examined by obtaining thermograms.

[2] = biological target: T2, human serum albumin (HSA) (Homo sapiens, UniProt P02768); assay: DSC thermograms of HSA with ligand (single-ligand titration); assay type: binding; conditions: for Binding Site stoichiometry / Implied number of sites: from dose response curves with HSA; for Tm / ΔG37^O / ΔHcal / ΔScal: thermal denaturation of HSA
T2 construct: purchased Sigma Aldrich (St. Louis, Mo.)
T2 sequence (P02768 25-609): as above
Description: Chemicals and reagents: Plasma and highly pure plasma proteins are sourced from commercial suppliers. Standard reagents are sourced from commercial suppliers. Samples are prepared in standard phosphate-buffered saline (PBS) buffer. In some examples, human plasma and serum albumin were purchased from Sigma Aldrich (St. Louis, Mo.) and received as lyophilized powder. Plasma was product number: P9523, lot number: SLBT0202. […] In vivo, the standard state of HSA is most certainly bound to some extent by fatty acids. Plasma and HSA stock solutions were prepared by re-suspending the appropriate amount of powder in buffer. Samples were prepared by diluting stock solutions to a final concentration of 1.5-2.0 mg/mL.
Protein concentration was approximately 2 mg/ml.
In a DSC melting experiment, the supplemental power supplied to the sample cell (in μW) necessary to keep the sample temperature equal to the reference temperature is continually monitored. […] Supplemental power is directly related to the molar heat capacity at constant pressure, ΔCp. Curves of ΔCp versus T provide an evaluation of the thermodynamic enthalpy. To enable direct comparisons in some cases, power (μW) versus T plots (instead of ΔCp versus T curves) were used for the following reason.
Analysis of DSC data was performed using the Nanoanalyze software package, version 3.7.5, provided by T.A. Instruments. […]
From the thermograms, semi-quantitative evaluations of the thermodynamic parameters ΔHcal, ΔScal and ΔGcal(37° C.) were obtained at each ligand concentration.
These curves were constructed from titrations of DM1 with HSA. The Tm and ΔGcal(37° C.) were evaluated. The values were normalized against standard HSA and plotted versus ligand concentration to provide the dose curves in FIG. 20A (Tm) and FIG. 20B (ΔGcal(37° C.)).
Natural HSA samples were prepared at pH 6.0 and pH 8.0 and examined by DSC. […] From DSC melting curves thermodynamic parameters for HSA/ligand mixtures were evaluated.

[3] = biological target: T2, human serum albumin (HSA); assay: Two-ligand (NAP + BCG) binding to standard HSA by DSC
HSA [4] = biological target: T1, HSA; parameters: purchased Sigma Aldrich (St. Louis, Mo.); conditions: cited from earlier work; for pKd: binding to HSA, read-out: Average Literature KD
biotinylated HSA (HSAB) = biotinylated HSA (HSAB) (Homo sapiens, UniProt P02768); assay: DSC thermograms of biotinylated HSA (HSAB) with ligands; assay type: binding
Sequence of biotinylated HSA (HSAB) (P02768 25-609): as above

HSA [5] = biological target: T1, HSA
Description: as §1, §2

[6] = after several days; cited from earlier work
[7] = ligand 22.5 μM (so in the source)

## Cc1c(C2(c3cc(Br)c(O)c(Br)c3C)OS(=O)(=O)c3ccccc32)cc(Br)c(O)c1Br [BCG, bromocresol green]
Human plasma; 100 μM ligand
  shift in Tm: about 7 °C
Human plasma; 100 μM ligand (FIG. 10A)
  enthalpy (ΔHcal) of plasma with ligand: 141 kcal/mol
  major Tm peak of plasma shifted to: 72 °C
HSA [1]; read-out: Average Measured KD; binding to HSA; single value or value marked 1)
  pKd: 5.48
HSA [1]; read-out: Measured KD From TM; binding to HSA; single value or value marked 1)
  pKd: 5.30
HSA [1]; read-out: Measured KD from ΔG^037; binding to HSA; single value or value marked 1)
  pKd: 5.79
[2]; HSA + ligand at pH 6.0, as much as
  increase of ΔGcal(37° C.) versus titration curve at pH 7.4: ~5 kcal/mol
[2]; HSA + ligand at pH 8.0
  lowering of ΔGcal(37° C.) versus titration curve at pH 7.4: ~2 kcal/mol
[2]; HSA, 100 μM ligand (text, FIG. 10B)
  ΔHcal of HSA/ligand: 165.6 kcal/mol and 166 kcal/mol
[2]
  Binding Site stoichiometry: 3
  Implied number of sites: 6
[2]; ligand 1 μM
  Tm: 62.9 °C
  ΔG37^O: 13.11 kcal/mol
  ΔHcal: 170.12 kcal/mol
  ΔScal: 506.23 cal/molK
[2]; ligand 10 μM
  Tm: 63.3 °C
  ΔG37^O: 13.83 kcal/mol
  ΔHcal: 176.99 kcal/mol
  ΔScal: 526.08 cal/molK
[2]; [7]
  Tm: 70.8 °C
  ΔG37^O: 16.43 kcal/mol
  ΔHcal: 167.24 kcal/mol
  ΔScal: 486.25 cal/molK
[2]; ligand 25 μM
  Tm: 63.6 °C
  ΔG37^O: 14.39 kcal/mol
  ΔHcal: 182.05 kcal/mol
  ΔScal: 540.59 cal/molK
[2]; ligand 50 μM
  Tm: 64.0 °C
  ΔG37^O: 15.19 kcal/mol
  ΔHcal: 189.75 kcal/mol
  ΔScal: 562.81 cal/molK
[2]; ligand 75 μM
  Tm: 64.6 °C
  ΔG37^O: 15.33 kcal/mol
  ΔHcal: 187.76 kcal/mol
  ΔScal: 555.95 cal/molK
[2]; ligand 125 μM
  Tm: 67.2 °C
  ΔG37^O: 16.18 kcal/mol
  ΔHcal: 182.33 kcal/mol
  ΔScal: 535.71 cal/molK
[2]; ligand 150 μM
  Tm: 69.0 °C
  ΔG37^O: 16.74 kcal/mol
  ΔHcal: 178.84 kcal/mol
  ΔScal: 522.66 cal/molK
[2]; ligand 175 μM
  Tm: 69.1 °C
  ΔG37^O: 15.92 kcal/mol
  ΔHcal: 169.77 kcal/mol
  ΔScal: 496.04 cal/molK
[2]; ligand 200 μM
  Tm: 70.3 °C
  ΔG37^O: 16.24 kcal/mol
  ΔHcal: 167.42 kcal/mol
  ΔScal: 487.44 cal/molK
[3]; HSA25BCG (HSA + 25 μM BCG), [NAP] 0 μM
  Binding Chemical Potentials (ΔG^O37): 14.00 kcal/mol
[3]; HSA25NAP (pre-bound 25 μM NAP), [BCG] 50 μM
  Binding Chemical Potentials (ΔG^O37): 18.33 kcal/mol
[3]; HSA25NAP (pre-bound 25 μM NAP), [BCG] 75 μM
  Binding Chemical Potentials (ΔG^O37): 19.49 kcal/mol
[3]; HSA25NAP (pre-bound 25 μM NAP), [BCG] 150 μM
  Binding Chemical Potentials (ΔG^O37): 19.61 kcal/mol
[3]; HSA50BCG (HSA + 50 μM BCG), [NAP] 0 μM
  Binding Chemical Potentials (ΔG^O37): 15.13 kcal/mol
[3]; HSA50NAP (pre-bound 50 μM NAP), [BCG] 50 μM
  Binding Chemical Potentials (ΔG^O37): 18.27 kcal/mol
[3]; HSA50NAP (pre-bound 50 μM NAP), [BCG] 75 μM
  Binding Chemical Potentials (ΔG^O37): 18.47 kcal/mol
[3]; HSA50NAP (pre-bound 50 μM NAP), [BCG] 150 μM
  Binding Chemical Potentials (ΔG^O37): 19.29 kcal/mol
[3]; HSA75BCG (HSA + 75 μM BCG), [NAP] 0 μM
  Binding Chemical Potentials (ΔG^O37): 15.33 kcal/mol
[3]; HSA75NAP (pre-bound 75 μM NAP), [BCG] 50 μM
  Binding Chemical Potentials (ΔG^O37): 19.51 kcal/mol
[3]; HSA75NAP (pre-bound 75 μM NAP), [BCG] 75 μM
  Binding Chemical Potentials (ΔG^O37): 20.42 kcal/mol
[3]; HSA75NAP (pre-bound 75 μM NAP), [BCG] 150 μM
  Binding Chemical Potentials (ΔG^O37): 21.08 kcal/mol
[3]; WT HSA with 50 μM BCG, [NAP] 0 μM
  Binding Chemical Potentials (ΔG^O37): 15.19 kcal/mol
[3]; WT HSA with 50 μM NAP, [BCG] 50 μM
  Binding Chemical Potentials (ΔG^O37): 18.38 kcal/mol
[3]; WT HSA with 50 μM NAP, [BCG] 75 μM
  Binding Chemical Potentials (ΔG^O37): 18.74 kcal/mol
[3]; WT HSA with 50 μM NAP, [BCG] 150 μM
  Binding Chemical Potentials (ΔG^O37): 19.86 kcal/mol
HSA [4]; NAP Sudlow site II, BCG Sudlow site I
  binding stoichiometry n on HSA: 3
HSA [4]
  pKd: 5.84
Biotinylated HSA (HSAB); HSAB 1:1 with 50 μM BCG, [NAP] 0 μM
  Binding Chemical Potentials (ΔG^O37): 18.49 kcal/mol
Biotinylated HSA (HSAB); HSAB 1:1 with 50 μM NAP, [BCG] 50 μM
  Binding Chemical Potentials (ΔG^O37): 21.76 kcal/mol
Biotinylated HSA (HSAB); HSAB 1:1 with 50 μM NAP, [BCG] 75 μM
  Binding Chemical Potentials (ΔG^O37): 22.56 kcal/mol
Biotinylated HSA (HSAB); HSAB 1:1 with 50 μM NAP, [BCG] 150 μM
  Binding Chemical Potentials (ΔG^O37): 22.96 kcal/mol
Biotinylated HSA (HSAB); HSAB 1:5 with 50 μM BCG, [NAP] 0 μM
  Binding Chemical Potentials (ΔG^O37): 21.27 kcal/mol
Biotinylated HSA (HSAB); HSAB 1:5 with 50 μM NAP, [BCG] 50 μM
  Binding Chemical Potentials (ΔG^O37): 24.12 kcal/mol
Biotinylated HSA (HSAB); HSAB 1:5 with 50 μM NAP, [BCG] 75 μM
  Binding Chemical Potentials (ΔG^O37): 25.60 kcal/mol
Biotinylated HSA (HSAB); HSAB 1:5 with 50 μM NAP, [BCG] 150 μM
  Binding Chemical Potentials (ΔG^O37): 25.06 kcal/mol
Biotinylated HSA (HSAB); HSAB 1:10 with 50 μM BCG, [NAP] 0 μM
  Binding Chemical Potentials (ΔG^O37): 22.37 kcal/mol
Biotinylated HSA (HSAB); HSAB 1:10 with 50 μM NAP, [BCG] 50 μM
  Binding Chemical Potentials (ΔG^O37): 25.04 kcal/mol
Biotinylated HSA (HSAB); HSAB 1:10 with 50 μM NAP, [BCG] 75 μM
  Binding Chemical Potentials (ΔG^O37): 25.30 kcal/mol
Biotinylated HSA (HSAB); HSAB 1:10 with 50 μM NAP, [BCG] 150 μM
  Binding Chemical Potentials (ΔG^O37): 24.99 kcal/mol

## O=C([O-])CN1CCN(CC(=O)[O-])CCN([C@H](CO)[C@H](O)CO)CCN(CC(=O)[O-])CC1.[Gd+3] [Gadavist (GAD)]
HSA [5]
  Measured HSA binding (cell spanning the measured KD columns; same in text): No Binding Detected

## CNC[C@H](O)[C@@H](O)[C@H](O)[C@H](O)CO.CNC[C@H](O)[C@@H](O)[C@H](O)[C@H](O)CO.O=C([O-])CN(CCN(CC(=O)[O-])CC(=O)O)CCN(CC(=O)[O-])CC(=O)O.[Gd+3] [Magnevist (MAG)]
HSA [5]
  Measured HSA binding (cell spanning the measured KD columns; same in text): No Binding Detected

## CCCCNc1ccc(C(=O)OCCN(C)C)cc1 [Tet, Tetracaine]
Human plasma; 2 mg/mL ligand
  effect on fibrinogen melting transition peak (52° C.) of the plasma thermogram: slight change
Human plasma; 2 mg/mL ligand, control 62-64° C.
  Tm where the HSA in plasma transition occurs: 63-65 °C
HSA [1]; Average Measured KD, binding to HSA; single value or value marked 1)
  pKd: 4.58
HSA [1]; Measured KD From TM, binding to HSA; single value or value marked 1)
  pKd: 4.63
HSA [1]; Measured KD from ΔG^037, binding to HSA; single value or value marked 1)
  pKd: 4.54
[2]
  Binding Site stoichiometry: 1
  Implied number of sites: 1
HSA [4]
  pKd: 4.22
[6]
  in vivo activity: retained significant activity after several days
